Experimental data: patent US20210403567A1, “METHODS OF TREATING CERVICAL CANCER BY ADMINISTERING A PD-1 INHIBITOR” (priority 2020, published 2021)
Like-named read-outs stand apart in the source and are kept apart here.

Columns and labels:
[1] = test system: cervical cancer; settings: 5/19; squamous histology only; cited from earlier work
[2] = test system: cervical cancer; settings: patient population of 60% squamous histology; cited from earlier work
[3] = test system: recurrent or metastatic cervical cancer that has progressed after first-line platinum-based treatment
[4] = test system: cervical cancer; settings: 12/98; cited from earlier work
[5] = subgroup with IC chemotherapy selected prior to randomisation: Gemcitabine (n = 108 vs 121)
[6] = subgroup with IC chemotherapy selected prior to randomisation: Irinotecan (n = 26 vs 19)

Question: What does the source list for nivolumab?
Answer: objective response rate [1]: 26.3%; response rate [2]: 4%

Question: Which results are given for `Nc1ccn([C@@H]2O[C@H](CO)[C@@H](O)C2(F)F)c(=O)n1` [gemcitabine, reference compound]?
Answer: Median OS (95% CI) [3, 5]: 9.0 (7.0-10.6) months; Median PFS (95% CI) [3, 5]: 2.8 (2.1-3.9) months; ORR [3, 5]: 5.0%

Question: What does the source list for `CCc1c2c(nc3ccc(OC(=O)N4CCC(N5CCCCC5)CC4)cc13)-c1cc3c(c(=O)n1C2)COC(=O)[C@]3(O)CC` [irinotecan, reference compound]?
Answer: Median OS (95% CI) [3, 6]: 11.8 (6.9-14.9) months; Median PFS (95% CI) [3, 6]: 4.2 (1.6-8.3) months; ORR [3, 6]: 15.8%

Question: Which “ORR in the cervical cancer cohort” value [4] does the source give for pembrolizumab here?
Answer: The value was 12.2%.
